Test results: patent US20120022261A1, “Colorant Compositions Containing an Oxonol Dye” (priority 2005, published 2012)

Key:
[1] = Solubility in organic solvents (EtOH, MEK); type: physicochemical; conditions: for Solubility (g/l) EtOH: solvent EtOH; for Solubility (g/l) MEK: solvent MEK (methylethyl ketone)
[2] = 50° C. test (storage at 50° C. over 18 hours in a hot-air cabinet); type: physicochemical; parameters: key: A positive test result indicates that the product still exists in a solid and powdery state after the heat treatment; If the product undergoes a sintering process and/or starts to melt at this temperature, the test result is classified as negative; conditions: solid product stored at 50° C. for 18 hours in a hot-air cabinet
Description: The 50° C. test involves storing the product to be tested at 50° C. over a period of 18 hours in a hot-air cabinet. […] If the product undergoes a sintering process and/or starts to melt at this temperature, the test result is classified as negative.

SMILES: CC1=C(C#N)C(=O)N(CC(C)C)C(=O)C1=CC=Cc1c(C)c(C#N)c(=O)n(CC(C)C)c1[O-].CCCC[N+](CCCC)(CCCC)CCCC
- Solubility (g/l) EtOH [1]: 4 g/L
- Solubility (g/l) MEK [1]: 56.2 g/L
- 50° C. Test [2]: positive

SMILES: CCCC[N+](CCCC)(CCCC)CCCC.CCN1C(=O)C(=CC=Cc2c(C)c(C#N)c(=O)n(CC)c2[O-])C(C)=C(C#N)C1=O [ethyl, ethyl, tetrabutyl-ammonium]
- Solubility (g/l) EtOH [1]: 5.6 g/L
- Solubility (g/l) MEK [1]: 63.2 g/L
- 50° C. Test [2]: positive

SMILES: CCCC[N+](CCCC)(CCCC)CCCC.CCCCn1c([O-])c(C=CC=C2C(=O)N(CC)C(=O)C(C#N)=C2C)c(C)c(C#N)c1=O [ethyl, n-butyl, tetrabutyl-ammonium]
- Solubility (g/l) EtOH [1]: 14.3 g/L
- Solubility (g/l) MEK [1]: 41.4 g/L
- 50° C. Test [2]: positive

SMILES: CC1=C(C#N)C(=O)N(C(C)C)C(=O)C1=CC=Cc1c(C)c(C#N)c(=O)n(C(C)C)c1[O-].CCCC[N+](CCCC)(CCCC)CCCC [i-propyl, i-propyl, tetrabutyl-ammonium]
- 50° C. Test [2]: positive

SMILES: CCCCN1C(=O)C(=CC=Cc2c(C)c(C#N)c(=O)n(CCCC)c2[O-])C(C)=C(C#N)C1=O.CCCC[N+](CCCC)(CCCC)CCCC [n-butyl, n-butyl, tetrabutyl-ammonium]
- Solubility (g/l) EtOH [1]: 35.5 g/L
- Solubility (g/l) MEK [1]: 98 g/L
- 50° C. Test [2]: positive

SMILES: CCCCCN1C(=O)C(=CC=Cc2c(C)c(C#N)c(=O)n(CCCCC)c2[O-])C(C)=C(C#N)C1=O.CCCC[N+](CCCC)(CCCC)CCCC [n-pentyl, n-pentyl, tetrabutyl-ammonium]
- Solubility (g/l) EtOH [1]: 50 g/L
- Solubility (g/l) MEK [1]: 380 g/L
- 50° C. Test [2]: positive

SMILES: CCCC[N+](CCCC)(CCCC)CCCC.CCCN1C(=O)C(=CC=Cc2c(C)c(C#N)c(=O)n(CCC)c2[O-])C(C)=C(C#N)C1=O [n-propyl, n-propyl, tetrabutyl-ammonium]
- Solubility (g/l) EtOH [1]: 14 g/L
- Solubility (g/l) MEK [1]: 69 g/L
- 50° C. Test [2]: positive

SMILES: CCCC[N+](CCCC)(CCCC)CCCC.COCCN1C(=O)C(=CC=Cc2c(C)c(C#N)c(=O)n(CCOC)c2[O-])C(C)=C(C#N)C1=O [reference compound]
- 50° C. Test [2]: negative

SMILES: CCCC[N+](CCCC)(CCCC)CCCC.CCn1c([O-])c(C=CC=C2C(=O)N(CCCOC(C)C)C(=O)C(C#N)=C2C)c(C)c(C#N)c1=O [reference compound]
- Solubility (g/l) EtOH [1]: 146 g/L
- Solubility (g/l) MEK [1]: 231 g/L
- 50° C. Test [2]: negative

SMILES: CCCCC[N+](CCCCC)(CCCCC)CCCCC.CCn1c([O-])c(C=CC=C2C(=O)N(CCCOC(C)C)C(=O)C(C#N)=C2C)c(C)c(C#N)c1=O [reference compound]
- Solubility (g/l) EtOH [1]: 45 g/L
- Solubility (g/l) MEK [1]: 32 g/L
- 50° C. Test [2]: negative

SMILES: CC1=C(C#N)C(=O)N(CCCOC(C)C)C(=O)C1=CC=Cc1c(C)c(C#N)c(=O)n(C)c1[O-].CCCC[N+](CCCC)(CCCC)CCCC [reference compound]
- Solubility (g/l) EtOH [1]: 21.3 g/L
- Solubility (g/l) MEK [1]: 28.5 g/L
- 50° C. Test [2]: negative

SMILES: CCCC[N+](CCCC)(CCCC)CCCC.CCCCn1c([O-])c(C=CC=C2C(=O)N(CCCOC(C)C)C(=O)C(C#N)=C2C)c(C)c(C#N)c1=O [reference compound]
- Solubility (g/l) EtOH [1]: 197 g/L
- Solubility (g/l) MEK [1]: 339 g/L
- 50° C. Test [2]: negative
